The supplement of paper PMC10307832

Legend:
Test in all cases: relative viability (nuclei count vs DMSO), 5 days (fraction); higher = more cells survive
AZD8055 + Trametinib = compound: COc1ccc(-c2ccc3c(N4CCOC[C@@H]4C)nc(N4CCOC[C@@H]4C)nc3n2)cc1CO [AZD8055] + CC(=O)Nc1cccc(-n2c(=O)n(C3CC3)c(=O)c3c(Nc4ccc(I)cc4F)n(C)c(=O)c(C)c32)c1 [Trametinib] (partner 0.02 µM)
Summary of the method: (§1)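 Lung cancer cell lines in 1536-well plates got either a single drug or a fixed anchor-drug dose together with five library-drug doses (not always all listed) in √10 steps, by pin tool, on the day after seeding. Nuclei were counted after 5 days, and relative viability is the treated-to-vehicle ratio of nuclei counts. Values are medians of duplicate plates.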

AZD8055 + Bortezomib = compound: COc1ccc(-c2ccc3c(N4CCOC[C@@H]4C)nc(N4CCOC[C@@H]4C)nc3n2)cc1CO [AZD8055] + CC(C)C[C@H](NC(=O)[C@H](Cc1ccccc1)NC(=O)c1cnccn1)B(O)O [Bortezomib] (partner 0.002 µM)
Summary of the method: as §1

AZD8055 + Pictilisib = compound: COc1ccc(-c2ccc3c(N4CCOC[C@@H]4C)nc(N4CCOC[C@@H]4C)nc3n2)cc1CO [AZD8055] + CS(=O)(=O)N1CCN(Cc2cc3nc(-c4cccc5[nH]ncc45)nc(N4CCOCC4)c3s2)CC1 [Pictilisib] (partner 1 µM)
Summary of the method: as §1

AZD8055 + Olaparib = compound: COc1ccc(-c2ccc3c(N4CCOC[C@@H]4C)nc(N4CCOC[C@@H]4C)nc3n2)cc1CO [AZD8055] + O=C(c1cc(Cc2n[nH]c(=O)c3ccccc23)ccc1F)N1CCN(C(=O)C2CC2)CC1 [Olaparib] (partner 8 µM)
Summary of the method: as §1

Cell Line | relative viability (AZD8055 + Trametinib; first compound 0.01 µM) | relative viability (AZD8055 + Trametinib; first compound 0.03162 µM) | relative viability (AZD8055 + Trametinib; first compound 0.1 µM) | relative viability (AZD8055 + Trametinib; first compound 0.3162 µM) | relative viability (AZD8055 + Trametinib; first compound 1 µM) | relative viability (AZD8055 + Bortezomib; first compound 0.01 µM) | relative viability (AZD8055 + Bortezomib; first compound 0.03162 µM) | relative viability (AZD8055 + Bortezomib; first compound 0.1 µM) | relative viability (AZD8055 + Bortezomib; first compound 0.3162 µM) | relative viability (AZD8055 + Bortezomib; first compound 1 µM) | relative viability (AZD8055 + Pictilisib; first compound 0.01 µM) | relative viability (AZD8055 + Pictilisib; first compound 0.03162 µM) | relative viability (AZD8055 + Pictilisib; first compound 0.1 µM) | relative viability (AZD8055 + Pictilisib; first compound 0.3162 µM) | relative viability (AZD8055 + Pictilisib; first compound 1 µM) | relative viability (AZD8055 + Olaparib; first compound 0.01 µM) | relative viability (AZD8055 + Olaparib; first compound 0.03162 µM) | relative viability (AZD8055 + Olaparib; first compound 0.1 µM) | relative viability (AZD8055 + Olaparib; first compound 0.3162 µM) | relative viability (AZD8055 + Olaparib; first compound 1 µM)
LCLC-97TM1 | 0.194 | 0.164 | 0.124 | 0.138 | 0.123 | 0.524 | 0.417 | 0.345 | 0.103 | 0.162 | 0.172 | 0.107 | 0.106 | 0.108 | 0.176 | 0.413 | 0.308 | 0.216 | 0.105 | 0.0929
LCLC-103H | 0.628 | 0.636 | 0.469 | 0.456 | 0.425 | 1.15 | 0.934 | 0.93 | 0.745 | 0.673 | 0.612 | 0.572 | 0.546 | 0.52 | 0.332 | 0.824 | 0.634 | 0.631 | 0.47 | 0.396
LOU-NH91 | 0.765 | 0.74 | 0.64 | 0.564 | 0.587 | 0.452 | 0.512 | 0.489 | 0.497 | 0.381 | 0.546 | 0.542 | 0.512 | 0.478 | 0.491 | 1.03 | 0.913 | 0.816 | 0.633 | 0.607
LU99A | 0.403 | 0.337 | 0.308 | 0.203 | 0.191 | 0.936 | 0.549 | 0.374 | 0.235 | 0.209 | 0.281 | 0.18 | 0.168 | 0.195 | 0.22 | 0.293 | 0.226 | 0.161 | 0.183 | 0.168
LXF-289 | 0.75 | 0.606 | 0.627 | 0.392 | 0.333 | 1.06 | 0.982 | 0.951 | 0.682 | 0.756 | 0.83 | 0.673 | 0.556 | 0.411 | 0.454 | 1.07 | 1.01 | 0.928 | 0.641 | 0.57
NCI-H23 | 0.277 | 0.314 | 0.33 | 0.227 | 0.22 | 1.3 | 0.881 | 0.791 | 0.27 | 0.271 | 0.472 | 0.314 | 0.314 | 0.251 | 0.293 | 0.248 | 0.213 | 0.279 | 0.166 | 0.184
NCI-H322M | 0.522 | 0.467 | 0.486 | 0.481 | 0.398 | 1.24 | 1.34 | 1.17 | 0.894 | 1.11 | 0.46 | 0.463 | 0.436 | 0.444 | 0.422 | 0.806 | 0.847 | 0.734 | 0.731 | 0.474
NCI-H441 | 0.432 | 0.452 | 0.282 | 0.229 | 0.201 | 0.502 | 0.577 | 0.396 | 0.168 | 0.186 | 0.518 | 0.483 | 0.375 | 0.215 | 0.267 | 0.691 | 0.528 | 0.359 | 0.32 | 0.249
NCI-H460 | 0.144 | 0.129 | 0.0855 | 0.0696 | 0.0537 | 1.25 | 0.79 | 0.44 | 0.195 | 0.0935 | 0.338 | 0.295 | 0.262 | 0.226 | 0.264 | 0.444 | 0.409 | 0.371 | 0.254 | 0.216
NCI-H520 | 0.581 | 0.246 | 0.267 | 0.109 | 0.137 | 0.623 | 0.185 | 0.16 | 0.127 | 0.147 | 0.301 | 0.19 | 0.202 | 0.163 | 0.159 | 0.247 | 0.205 | 0.132 | 0.137 | 0.132
NCI-H596 | 0.704 | 0.676 | 0.577 | 0.411 | 0.404 | 0.856 | 0.722 | 0.697 | 0.459 | 0.497 | 0.341 | 0.363 | 0.32 | 0.308 | 0.337 | 0.752 | 0.615 | 0.459 | 0.452 | 0.514
NCI-H647 | 0.538 | 0.345 | 0.322 | 0.136 | 0.127 | 1.71 | 0.748 | 0.541 | 0.266 | 0.17 | 0.46 | 0.329 | 0.282 | 0.16 | 0.149 | 0.7 | 0.416 | 0.301 | 0.227 | 0.169
NCI-H650 | 1.13 | 1.09 | 0.888 | 0.469 | 0.353 | 0.658 | 0.511 | 0.681 | 0.343 | 0.291 | 0.905 | 0.736 | 0.623 | 0.307 | 0.304 | 0.484 | 0.38 | 0.357 | 0.217 | 0.175
NCI-H661 | 0.518 | 0.426 | 0.451 | 0.31 | 0.325 | 1.09 | 0.619 | 0.758 | 0.396 | 0.295 | 0.394 | 0.424 | 0.322 | 0.302 | 0.27 | 0.785 | 0.802 | 0.691 | 0.447 | 0.378
